Test systems include COLO 205 colon; MDA-MB-231 breast; HOP-92 NSCLC; A549 NSCLC; MCF7 breast; SK-MEL-2 melanoma; SF-268 CNS; UACC-62 melanoma; K-562 leukemia; MOLT-4 leukemia.
What all share (test): inhibition of tumour cell growth, NCI panel, 48 h

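How tested: cells in 96-well plates exposed to compound for 48 hours at five concentrations. GI50 marks 50% less growth. Definition used: TGI = concentration required for complete inhibition of growth.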 Where only a bound is given, the exact number is not on record here.

For the compound `Oc1c(Cl)c(Cl)c(O)c2c1CCCC2`, the TGI in the assay on COLO 205 colon was 3.74 µM; with MDA-MB-231 breast it was 41.9 µM; with HOP-92 NSCLC it was 4.85 µM; in the assay with A549 NSCLC, 72.6 µM; with MCF7 breast, 4.56 µM; in the assay with SK-MEL-2 melanoma it was 45.4 µM. Further, the TGI with SF-268 CNS came out at 24.8 µM; in the assay on UACC-62 melanoma, 27 µM.

As to `Nc1ccccc1C#C/C=C\C#Cc1cccc(O)c1`, the GI50 in the assay with COLO 205 colon is 8.45 µM; in the assay with MDA-MB-231 breast, 2.29 µM; in the assay on HOP-92 NSCLC, 11.9 µM; in the assay with A549 NSCLC, 2.78 µM; with MCF7 breast, 0.918 µM; in the assay on SF-268 CNS it was 7.93 µM. Moreover, the GI50 is 1.87 µM with UACC-62 melanoma, 3.81 µM with K-562 leukemia and 3.21 µM in the assay with MOLT-4 leukemia. In addition, the TGI is 23 µM with COLO 205 colon; 14.1 µM in the assay on MDA-MB-231 breast; > 51.2 µM in the assay on HOP-92 NSCLC; 15.7 µM in the assay on A549 NSCLC; 11.2 µM in the assay on MCF7 breast; 44.5 µM in the assay on SF-268 CNS. The TGI worked out at 6.6 µM with UACC-62 melanoma, 30.6 µM in the assay with K-562 leukemia and 23.7 µM with MOLT-4 leukemia.

For `Cc1ccc(C(=O)NC2CCC2)cc1-c1ccc(C(=O)NCC2CC2)cc1`, the GI50 was > 25 µM with COLO 205 colon; > 25 µM with MDA-MB-231 breast; > 21.3 µM with HOP-92 NSCLC; > 25 µM in the assay on A549 NSCLC; > 25 µM in the assay with MCF7 breast; > 25 µM with SK-MEL-2 melanoma. In addition, the GI50 in the assay with SF-268 CNS, with UACC-62 melanoma, in the assay on K-562 leukemia and in the assay on MOLT-4 leukemia was > 25 µM in each case. In addition, the TGI in the assay with COLO 205 colon, with MDA-MB-231 breast, in the assay with HOP-92 NSCLC, with A549 NSCLC, in the assay with MCF7 breast and in the assay with SK-MEL-2 melanoma was > 25 µM in each case. In addition, the TGI in the assay on SF-268 CNS, with UACC-62 melanoma, in the assay with K-562 leukemia and with MOLT-4 leukemia was > 25 µM throughout.

`Nc1ncnc2c1c(-c1ccc(Oc3ccccc3)cc1)nn2C[C@@H]1SSC[C@H]1O`: the GI50 with COLO 205 colon was 2.14 µM; in the assay with MDA-MB-231 breast it was 1.8 µM; with HOP-92 NSCLC it was 1.75 µM; with A549 NSCLC, 1.86 µM; in the assay with MCF7 breast, 0.898 µM; in the assay on SK-MEL-2 melanoma, 0.826 µM. The GI50 with SF-268 CNS is 0.199 µM; in the assay with UACC-62 melanoma it was 0.264 µM; in the assay with K-562 leukemia it was 0.501 µM. For the same compound, the TGI was 7.48 µM in the assay with COLO 205 colon; 5.45 µM with MDA-MB-231 breast; 5.87 µM in the assay with HOP-92 NSCLC; 4.69 µM with A549 NSCLC; 3.79 µM in the assay on MCF7 breast; 3.13 µM in the assay on SK-MEL-2 melanoma. Moreover, the values for the TGI in the assay on SF-268 CNS, in the assay with UACC-62 melanoma and in the assay with K-562 leukemia were 15.1 µM, 0.882 µM and 15.5 µM, respectively.

Turning to `COC(=O)C1=C(C)NC(C)=C(C(=O)OCC(C)C)C1c1ccccc1[N+](=O)[O-]` (stereo unspecified), the GI50 in the assay on COLO 205 colon was 13.3 µM; in the assay on MDA-MB-231 breast it was 4.04 µM; in the assay on HOP-92 NSCLC, 4.57 µM; in the assay with A549 NSCLC it was 4.52 µM; with MCF7 breast it was 3.58 µM; with SK-MEL-2 melanoma, 4 µM. Besides, the GI50 in the assay with SF-268 CNS is 7.8 µM; in the assay with UACC-62 melanoma, 2.28 µM; in the assay on MOLT-4 leukemia, 3.31 µM. The TGI is 26 µM with COLO 205 colon; 17.1 µM in the assay on MDA-MB-231 breast; 19.8 µM with HOP-92 NSCLC; 18.9 µM with A549 NSCLC; 16.1 µM in the assay on MCF7 breast; 13.6 µM in the assay on SK-MEL-2 melanoma. In addition, the TGI in the assay with SF-268 CNS is 22.7 µM; in the assay with UACC-62 melanoma, 11.2 µM; with MOLT-4 leukemia, 18.9 µM.

`CCOC(=O)c1cc2c(n1Cc1cc(OC)c(OC)c(OC)c1)-c1oncc1CCC2`: the GI50 in the assay on COLO 205 colon is 0.109 µM; in the assay with MDA-MB-231 breast it was 0.372 µM; in the assay on A549 NSCLC it was 0.234 µM; in the assay with MCF7 breast, 0.0589 µM; with SK-MEL-2 melanoma, 0.0841 µM; in the assay on SF-268 CNS, 0.657 µM. Further, the GI50 in the assay on UACC-62 melanoma was 0.0666 µM; in the assay on K-562 leukemia, 0.0973 µM; with MOLT-4 leukemia, 0.406 µM. Moreover, the TGI in the assay on COLO 205 colon was 0.495 µM; in the assay with MDA-MB-231 breast, 2.46 µM; with A549 NSCLC it was 65.4 µM; in the assay with MCF7 breast, > 66.5 µM; in the assay with SK-MEL-2 melanoma, 0.545 µM; with SF-268 CNS, > 60.2 µM. For the same compound, the values for the TGI with UACC-62 melanoma, in the assay with K-562 leukemia and in the assay with MOLT-4 leukemia were > 40.3 µM, > 100 µM and > 44.8 µM, respectively.

Take `C=C1c2ccoc2C[C@H]2[C@H]1CC[C@@]1(O)[C@@](C)(C(=O)OC)CCC[C@]21C`: the GI50 with COLO 205 colon was 20 µM; in the assay with MDA-MB-231 breast, 36.6 µM; with HOP-92 NSCLC, 14.6 µM; with A549 NSCLC, 25.5 µM; with MCF7 breast it was 9.51 µM; in the assay on SK-MEL-2 melanoma, 19 µM. Besides, the GI50 was 22.7 µM in the assay with SF-268 CNS, 13.7 µM with UACC-62 melanoma and 15.6 µM in the assay with MOLT-4 leukemia. Besides, the TGI with COLO 205 colon was 55 µM; in the assay with MDA-MB-231 breast, > 100 µM; in the assay on HOP-92 NSCLC it was 57.1 µM; in the assay on A549 NSCLC it was > 100 µM; in the assay with MCF7 breast, > 100 µM; with SK-MEL-2 melanoma it was 42.2 µM. Moreover, the values for the TGI in the assay on SF-268 CNS, in the assay with UACC-62 melanoma and in the assay with MOLT-4 leukemia were 73.5 µM, 30.7 µM and 43.3 µM, respectively.

`CC1=C(CCC(C)NCc2ccc(OCCCN3CCCCC3)cc2)C(C)(C)CCC1` (stereo unspecified): the GI50 is 0.197 µM with COLO 205 colon; 1.02 µM in the assay on MDA-MB-231 breast; 1.26 µM in the assay on HOP-92 NSCLC; 2.17 µM in the assay on A549 NSCLC; 0.286 µM with MCF7 breast; 1.49 µM in the assay with SK-MEL-2 melanoma. Besides, the GI50 in the assay on SF-268 CNS is 1.49 µM; in the assay with UACC-62 melanoma, 1.94 µM; in the assay with K-562 leukemia, 0.227 µM. For the same compound, the TGI with COLO 205 colon is 0.427 µM; with MDA-MB-231 breast, 2.73 µM; in the assay on HOP-92 NSCLC, 2.72 µM; in the assay with A549 NSCLC, 4.35 µM; with MCF7 breast, 1.17 µM; with SK-MEL-2 melanoma, 3.08 µM. Moreover, the TGI in the assay on SF-268 CNS stood at 3.08 µM; with UACC-62 melanoma it was 3.73 µM; in the assay with K-562 leukemia, 0.509 µM.

The record behind these values is PubChem BioAssay (NCI).
